Laboratory results from US10376523B2, “Aqueous composition containing ripasudil, or a salt, or a solvate thereof” (KOWA COMPANY, LTD., priority 2014, dated 2019).

Legend:
[1] = tested on: Pseudomonas aeruginosa NBRC 13275 strain; assay: Test Example 1: growth inhibitory activity on Pseudomonas aeruginosa (membrane filter method, colony count); format: cell-based; conditions: 2 g ripasudil monohydrochloride dihydrate in 270 mL phosphate buffer pH 7.2
Procedure: (§1) In order to examine ripasudil for the presence or absence of growth inhibitory activity on microorganisms (bacteria and fungi), the following tests were performed using Pseudomonas aeruginosa as a bacterium and Candida albicans as a fungus. Pseudomonas aeruginosa NBRC 13275 strain was seeded on the soybean-casein digest medium (Merck Corporation) and cultured at 30 to 35° C. for 20 to 22 hours. The culture was then diluted with peptone saline buffer (pH 7.0) to 1,000 CFU/mL or less to obtain a test bacterial suspension. Two grams of ripasudil monohydrochloride dihydrate were dissolved in 270 mL of phosphate buffer (pH 7.2) to obtain a dilute sample solution. A sample was obtained by mixing 0.5 mL of the test bacterial suspension with 50 mL of the dilute sample solution (note that a mixture of 0.5 mL of the test bacterial suspension and 50 mL of phosphate buffer (pH 7.2) was used as a control sample). […] After the culture, the number of colonies formed was counted (note that the test was performed twice, and an average value was determined). From the determined number of colonies, a growth inhibitory ratio (%) was calculated using the following equation: Growth inhibitory ratio (%)=|(the number of colonies for the control sample−the number of colonies for the sample)|/the number of colonies for the control sample×100

[2] = tested on: Candida albicans NERC 1594 strain; assay: Test Example 1: growth inhibitory activity on Candida albicans (membrane filter method, colony count); format: cell-based; conditions: 2 g ripasudil monohydrochloride dihydrate in 270 mL phosphate buffer pH 7.2
Procedure: as §1, with “fungus.” for “fungus. Pseudomonas aeruginosa NBRC 13275 strain was seeded on the soybean-casein digest medium (Merck Corporation) and cultured at 30 to 35° C. for 20 to 22 hours. The culture was then diluted with peptone saline buffer (pH 7.0) to 1,000 CFU/mL or less to obtain a test bacterial suspension.”, “sample×100 Candida albicans NERC 1594 strain was seeded on the Sabouraud-dextrose liquid medium (Merck Corporation) and cultured at 20 to 25° C. for 44 to 46 hours. […] After the culture, the number of colonies formed was counted (note that the test was performed twice, and an average value was determined). A growth inhibitory ratio (%) was also calculated.” for “sample×100”

[3] = at a concentration of 0.001%; cited from earlier work

Row | Molecule | Number of Formed Colonies, Sample ([1]; contact 30 minutes or longer, average of two tests, control sample 47 colonies) | Growth Inhibitory Ratio ([1]; versus control sample) [%] | Number of Formed Colonies, Sample ([2]; contact 30 minutes or longer, average of two tests, control sample 37 colonies) | Growth Inhibitory Ratio ([2]; versus control sample) [%] | antimicrobial activity [3]
1 | C[C@H]1CNCCCN1S(=O)(=O)c1cccc2cncc(F)c12 [ripasudil, 4-fluoro-5-[[(2S)-2-methyl-1,4-diazepan-1-yl]sulfonyl]isoquinoline] | 0 | 100 | 23 | 37.8 | 
2 | benzalkonium chloride |  |  |  |  | sufficient antimicrobial activity is not demonstrated
